In ChEMBL document CHEMBL3286363, “Benzo[d]isothiazole 1,1-dioxide derivatives as dual functional inhibitors of 5-lipoxygenase and microsomal prostaglandin E(2) synthase-1” (Bioorg Med Chem Lett, 2014):

Assays:
[1] = molecular target: T1, Polyunsaturated fatty acid 5-lipoxygenase (Homo sapiens, UniProt P09917); assay: Inhibition of human 5-LOX using arachidonic acid as substrate measured as H2DCFDA conversion to 2',7'-dichlorofluorescein preincubated for 10 mins by fluorescence spectrophotometric analysis
T1 sequence (P09917 whole entry): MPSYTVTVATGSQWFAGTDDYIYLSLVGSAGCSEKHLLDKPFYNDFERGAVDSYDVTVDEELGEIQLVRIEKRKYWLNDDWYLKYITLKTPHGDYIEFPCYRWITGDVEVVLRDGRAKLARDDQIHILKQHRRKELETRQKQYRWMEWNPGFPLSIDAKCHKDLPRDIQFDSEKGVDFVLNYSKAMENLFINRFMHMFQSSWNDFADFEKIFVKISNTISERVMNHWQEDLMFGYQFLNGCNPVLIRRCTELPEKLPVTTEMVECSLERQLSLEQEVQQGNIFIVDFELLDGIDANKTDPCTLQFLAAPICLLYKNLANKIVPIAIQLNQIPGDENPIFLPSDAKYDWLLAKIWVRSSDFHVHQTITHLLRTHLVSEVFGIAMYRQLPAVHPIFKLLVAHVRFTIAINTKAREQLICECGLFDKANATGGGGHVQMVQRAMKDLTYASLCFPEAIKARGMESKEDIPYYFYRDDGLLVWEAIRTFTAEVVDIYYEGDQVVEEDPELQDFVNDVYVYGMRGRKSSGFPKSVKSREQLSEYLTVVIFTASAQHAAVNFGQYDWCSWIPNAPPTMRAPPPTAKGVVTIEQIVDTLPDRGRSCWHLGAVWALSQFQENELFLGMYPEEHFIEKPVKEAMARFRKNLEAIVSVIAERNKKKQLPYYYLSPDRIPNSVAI

Prostaglandin E synthase = molecular target: T2, Prostaglandin E synthase (Homo sapiens, UniProt O14684); assay: Inhibition of microsomal PGES-1 (unknown origin) assessed as PGH2 conversion to PGE2 after 1 min by enzyme immunoassay
T2 sequence (O14684 whole entry): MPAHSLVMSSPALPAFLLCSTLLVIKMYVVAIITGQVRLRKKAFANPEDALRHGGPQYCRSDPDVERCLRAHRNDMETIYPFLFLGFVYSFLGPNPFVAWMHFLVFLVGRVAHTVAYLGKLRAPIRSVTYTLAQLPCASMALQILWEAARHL

IC50 [1] | IC50 (Prostaglandin E synthase) | SMILES
12.3 µM | 16.9 µM | COc1ccc(NC2=NS(=O)(=O)c3cc([N+](=O)[O-])ccc32)cc1
14.9 µM | > 50 µM | O=[N+]([O-])c1ccc2c(c1)S(=O)(=O)N=C2Nc1cccc2c1OCO2
0.7 µM | > 50 µM | O=[N+]([O-])c1ccc2c(c1)S(=O)(=O)N=C2Nc1cccc(-c2ccccc2)c1
> 50 µM | > 50 µM | Cc1ccccc1NC1=NS(=O)(=O)c2cc([N+](=O)[O-])ccc21
0.6 µM | 2.1 µM | O=[N+]([O-])c1ccc2c(c1)S(=O)(=O)N=C2Nc1cccc2ccccc12
3.4 µM | 7.3 µM | O=[N+]([O-])c1ccc2c(c1)S(=O)(=O)N=C2Nc1cccc(Br)c1
0.24 µM | 8.8 µM | COc1cccc(NC2=NS(=O)(=O)c3cc([N+](=O)[O-])ccc32)c1
0.06 µM | > 50 µM | CC(C)(C)c1cccc(NC2=NS(=O)(=O)c3cc([N+](=O)[O-])ccc32)c1
> 50 µM | > 50 µM | O=[N+]([O-])c1ccc2c(c1)S(=O)(=O)N=C2NCc1cccc(Br)c1
8.6 µM | 23.6 µM | O=[N+]([O-])c1ccc2c(c1)S(=O)(=O)N=C2Nc1ccccc1
> 50 µM | > 50 µM | O=[N+]([O-])c1ccc2c(c1)S(=O)(=O)N=C2Nc1cccc2c(Br)cccc12
23.5 µM | > 50 µM | COc1ccc(NC2=NS(=O)(=O)c3cc([N+](=O)[O-])ccc32)cc1OC
> 50 µM | 0.15 µM | O=[N+]([O-])c1ccc2c(c1)S(=O)(=O)N=C2Nc1cccc2ncccc12
0.25 µM | > 50 µM | CC(C)c1cccc(NC2=NS(=O)(=O)c3cc([N+](=O)[O-])ccc32)c1
> 50 µM | 5.7 µM | O=[N+]([O-])c1ccc2c(c1)S(=O)(=O)N=C2Nc1cccc(Cl)c1
